According to patent publication US8293745B2 (Bioniche Life Sciences Inc., priority 2004, dated 2012):
One block for each compound: values may come before it.

Legend:
[1] = test system: HIV-1; settings: cited from earlier work
[2] = test system: EMC virus; settings: L929 cells; cited from earlier work
[3] = test system: GIST of the posterior wall of the stomach; assay: Imatinib mesylate treatment of GIST in the same patient
[4] = test system: HCV; settings: 400 mg/day
Method: A person diagnosed with chronic active hepatitis C. […] The patient was positive for antibodies for HCV. Histological confirmation of chronic hepatitis was corroborated by positive hepatic biopsies at month zero.
For 18 months, the patient was treated with interferon alpha-2 at 180 μg/week. For the next 4 months, the patient was given intravenous administration of 6 million units (MU) interferon-beta daily for 6 weeks followed by three times weekly for 20 weeks. Subsequently, the patient was treated with interferon alpha-2 at 180 μg/week plus ribavirin 1000-1200 mg/day for 5 months. Subsequently, the patient was treated with pegylated interferon alpha-2b (PEG-interferon) at 1.5 μg/kg once weekly for 25 months.
Subsequently, the patient was diagnosed with a GIST of the posterior wall of the stomach. […] The patient then underwent surgical resection of the GIST.

[5] = test system: c-Kit tyrosine kinase; settings: cited from earlier work
[6] = test system: chronic phase CML; settings: high-dose, newly diagnosed chronic phase CML; cited from earlier work
[7] = human patient with HCV and GIST, within 2 weeks after the beginning of treatment, FIG. 1

Compound: OCCC#Cc1nc(-c2ccc(F)cc2)c(-c2ccncc2)n1CCCc1ccccc1 [RWJ67657]
HIV-1 replication [1]: effective in inhibiting HIV-1 replication

Compound: O=c1c(-c2ccc(O)cc2)coc2cc(O)cc(O)c12 [genistein]
EMC virus replication [2]: suppressed viral replication

Compound: CO[C@H]1[C@@H](OC)C[C@H](C)[C@@H](OC)C2=CC(=O)C=C(NC(=O)/C(C)=C/C=C\[C@H](OC)[C@@H](OC(N)=O)/C(C)=C/[C@@H]1C)C2=O [herbimycin A]
EMC virus replication [2]: suppressed viral replication

complication during treatment ([3]; after 5 months preoperative 400 mg/day, treatment halted): acute hemorrhage of the tumor
Compound: CS(=O)(=O)O.Cc1ccc(NC(=O)c2ccc(CN3CCN(C)CC3)cc2)cc1Nc1nccc(-c2cccnc2)n1 [imatinib mesylate, 4-[(4-methyl-1-piperazinyl)methyl]-N-[4-methyl-3-[[4-(3-pyridinyl)-2-pyrimidinyl]amino]phenyl]-benzamide methanesulfonate]
remission of GIST ([3]; 400 mg/day, pre- and postoperative): achieved cytogenetic and molecular remission | attenuation of the gastric tumor (histologic examination) ([3]; after imatinib mesylate treatment): significant decreased attenuation | metastasis status ([3]; one year after the initiation of treatment): without metastasis | levels of alanine aminotransferase [4, 7]: dramatically decreased | levels of aspartate aminotransferase [4, 7]: dramatically decreased | quality of life ([4]; patient-reported): clear improvement

Compound: Cc1ccc(NC(=O)c2ccc(CN3CCN(C)CC3)cc2)cc1Nc1nccc(-c2cccnc2)n1 [imatinib, 4-[(4-methyl-1-piperazinyl)methyl]-N-[4-methyl-3-[[4-(3-pyridinyl)-2-pyrimidinyl]amino]phenyl]-benzamide]
inhibition of c-Kit tyrosine kinase activity, wild-type vs constitutively active enzyme [5]: equally effective against both wild-type and constitutively active enzyme | rates of complete cytogenetic response and of molecular response [6]: higher rates
